# In ChEMBL document CHEMBL3227972, “Correlation of carbonic anhydrase inhibitory activities of benzenesulfonamides with the data obtained by use of nitrogen-14 nuclear quadrupole resonance” (J Med Chem, 1979):
# Species on record: Homo sapiens
# Experiment: Inhibition of carbonic anhydrase (unknown origin) relative to sulfanilamide
row,Compound,fold change (FC)
1,NS(=O)(=O)c1ccccc1,4
2,Cc1ccccc1S(N)(=O)=O,1.8
3,Nc1cccc(S(N)(=O)=O)c1,2.5

# The remaining lines, values ahead:
row,fold change (FC),Compound
1,1,Nc1ccc(S(N)(=O)=O)cc1
2,18,NS(=O)(=O)c1ccc(Cl)cc1
3,23,NS(=O)(=O)c1ccc([N+](=O)[O-])cc1
